Data published in patent US7960427B2, “5-hydroxyindole-3-carboxylate derivatives and uses thereof” (priority 2004, dated 2011).
In brackets after ≈: the same amount, converted by molar mass.

Experiments:
2.2.15 cells = test: Cytotoxicity (TC50) in 2.2.15 cells; type: cell-based
Method: (§1) All compounds were evaluated for their anti-HBV activities, namely the ability to inhibit the replication of HBV DNA and the production of HBsAg and HBeAg in HBV-infected 2.2.15 cells.
(§2) The samples were dissolved in DMSO for appropriate concentrations, and then each was diluted 3-fold with culture medium. The 2.2.15 cells were planted into 96-well culture plates. […] The culture supernatants and 2.2.15 cells were collected respectively on the 8th plant day. The secretion concentrations of HBsAg and HBeAg in the culture supernatants were measured by RIA on SPRIA Kit for Detection of HBsAg and HBeAg (Beijing North Institute of Biological Technology), and the replication of HBV DNA was measured by dot hybridization with a^32PdCTP (FuRui Biological Technology Ltd., China).

HBV DNA = test: In vitro anti-HBV activity: replication of HBV DNA in 2.2.15 cells (dot hybridization); type: cell-based, Hepatitis B virus (HBV); settings: for IC50: Hepatitis B virus, read-out: DNA replication IC50; for DNA replication SI: selectivity index
Method: as §1, §2

HIV-1 protease = biological target: T1, HIV-1 protease (Human immunodeficiency virus type 1 group M subtype B, UniProt P04585); test: Anti-HIV-1 protease activity (fluorescence labeled substrate); type: biochemical; settings: for inhibition ratio at 0.5 ug/ml: sample concentration 0.5 ug/ml; for inhibition ratio at 2.0 ug/ml: sample concentration 2.0 ug/ml; for inhibition ratio at 10 ug/ml: sample concentration 10 ug/ml; for inhibition ratio at 50 ug/ml: sample concentration 50 ug/ml; for inhibition ratio at 250 ug/ml: sample concentration 250 ug/ml
T1 construct: The genetically engineered target enzyme (HIV-1 protease, preserved at −85° C.)
Method: HIV-1 protease can cut the fluorescence labeled substrate under optimal condition and reaction system, so the activity of enzyme is determined by the fluorescence in the product of enzymatic reaction. The samples are added into the reaction system to observe the inhibitive effect on the enzyme.
The samples and the reference drug Indinavir ([…].) were dissolved in DMSO or redistilled water for appropriate concentration. Each was diluted 5-fold and then added into the buffer containing fluorescence labeled substrate (MP Co.). The genetically engineered target enzyme (HIV-1 protease, preserved at −85° C.) was added to the buffer and incubated under the optimal reaction condition. The fluorescence was determined by FLUO star Galaxy fluorometer.

Row | SMILES | TC50 (2.2.15 cells) | IC50 (HBV DNA) | DNA replication SI (HBV DNA) | IC50 (HIV-1 protease) | inhibition ratio at 0.5 ug/ml (HIV-1 protease) | inhibition ratio at 2.0 ug/ml (HIV-1 protease) | inhibition ratio at 10 ug/ml (HIV-1 protease) | inhibition ratio at 50 ug/ml (HIV-1 protease) | inhibition ratio at 250 ug/ml (HIV-1 protease)
1 | Nc1ccn([C@@H]2CS[C@H](CO)O2)c(=O)n1 [Example 3TC, Lamivudine, reference compound] | 1600 µg/mL (≈ 6980 µM) | 228 µg/mL (≈ 994 µM) |  |  |  |  |  |  | 
2 | CCOC(=O)c1c(C[S+]([O-])c2cccc(Cl)c2)n(C)c2cc(Br)c(O)c(CN3CCOCC3)c12 (centres unmarked) [Example 59, Ethyl 6-bromo-5-hydroxy-1-methyl-4-(morpholinomethyl)-2-[(3-chlorophenyl)sulfinylmethyl]-1H-indole-3-carboxylate] | 288.68 µg/mL (≈ 507 µM) | 26.6 µg/mL (≈ 46.7 µM) | 10.8 |  |  |  |  |  | 
3 | CCOC(=O)c1c(C[S+]([O-])Cc2ccc(F)cc2)n(C)c2cc(Br)c(O)c(CN3CCOCC3)c12.Cl (centres unmarked) [Example 64, Ethyl 6-bromo-5-hydroxy-1-methyl-4-(morpholinomethyl)-2-[(4-fluorobenzyl)sulfinylmethyl]-1H-indole-3-carboxylate hydrochloride] | 24.69 µg/mL | 0.76 µg/mL | 32.48 |  |  |  |  |  | 
4 | CCOC(=O)c1c(C[S+]([O-])Cc2ccoc2)n(C)c2ccc(O)c(CN3CCCCC3)c12.Cl (centres unmarked) [Example 77, Ethyl 5-hydroxy-1-methyl-4-(piperidinomethyl)-2-[(3-furylmethyl)sulfinylmethyl]-1H-indole-3-carboxylate hydrochloride] | 74.07 µg/mL | 18.1 µg/mL | 4.09 |  |  |  |  |  | 
5 | CCOC(=O)c1c(C[S+]([O-])Cc2ccc(F)cc2)n(C)c2cc(Br)c(O)c(CN(C)C)c12 (centres unmarked) [Example 80, Ethyl 6-bromo-4-[(dimethylamino)methyl]-5-hydroxy-1-methyl-2-[(4-fluorobenzyl)sulfinylmethyl]-1H-indole-3-carboxylate] | <0.91 µg/mL | 0.27 µg/mL (≈ 0.514 µM) | 3.37 |  |  |  |  |  | 
6 | CCOC(=O)c1c(C[S+]([O-])Cc2cccc(F)c2)n(C)c2cc(Br)c(O)c(CN(C)C)c12 (centres unmarked) [Example 81, Ethyl 6-bromo-4-[(dimethylamino)methyl]-5-hydroxy-1-methyl-2-[(3-fluorobenzyl)sulfinylmethyl]-1H-indole-3-carboxylate] | 35.61 µg/mL (≈ 67.8 µM) | 0.715 µg/mL (≈ 1.36 µM) | 49.8 |  |  |  |  |  | 
7 | CCOC(=O)c1c(CS(=O)(=O)Cc2ccc(F)cc2)n(C)c2cc(Br)c(O)c(CN3CCCC3)c12 [Example 84, Ethyl 6-bromo-5-hydroxy-1-methyl-4-(1-pyrrolidinylmethyl)-2-[(4-fluorobenzyl)sulfonylmethyl]-1H-indole-3-carboxylate] | 24.69 µg/mL (≈ 43.5 µM) | 0.58 µg/mL (≈ 1.02 µM) | 42.57 |  |  |  |  |  | 
8 | CCOC(=O)c1c(CS(=O)(=O)Cc2ccco2)n(C2CC2)c2ccc(O)c(CN3CCCC3)c12 [Example 85] | 14.26 µg/mL (≈ 29.3 µM) | 1.52 µg/mL (≈ 3.12 µM) | 9.38 |  |  |  |  |  | 
9 | CCOC(=O)c1c(C[S+]([O-])Cc2ccc(F)cc2)n(C)c2cc(Br)c(O)c(CN3CCCCC3)c12 (centres unmarked) [Example 86, Ethyl 6-bromo-5-hydroxy-1-methyl-4-(piperidinomethyl)-2-[(4-fluorobenzyl)sulfinylmethyl]-1H-indole-3-carboxylate] | 7.13 µg/mL (≈ 12.6 µM) | 0.64 µg/mL (≈ 1.13 µM) | 11.14 |  |  |  |  |  | 
10 | CCOC(=O)c1c(C[S+]([O-])Cc2cccc(F)c2)n(C)c2cc(Br)c(O)c(CN3CCOCC3)c12 (centres unmarked) [Example 87, Ethyl 6-bromo-5-hydroxy-1-methyl-4-(morpholinomethyl)-2-[(3-fluorobenzyl)sulfinylmethyl]-1H-indole-3-carboxylate] | 21.39 µg/mL (≈ 37.7 µM) | 0.53 µg/mL (≈ 0.934 µM) | 40.35 |  |  |  |  |  | 
11 | CCOC(=O)c1c(C[S+]([O-])c2ccc(F)cc2)n(C2CC2)c2cc(Br)c(O)c(Cn3ccnc3)c12 (centres unmarked) [Example 117, Ethyl 6-bromo-1-cyclopropyl-5-hydroxy-4-[(1-imidazoly)methyl]-2-[(4-fluorophenyl)sulfinylmethyl]-1H-indole-3-carboxylate] | 55.56 µg/mL (≈ 99.1 µM) | 11.4 µg/mL (≈ 20.3 µM) | 4.87 |  |  |  |  |  | 
12 | CCOC(=O)c1c(C[S+]([O-])c2ccc(F)c(F)c2)n(C2CC2)c2cc(Br)c(O)c(Cn3ccnc3)c12 (centres unmarked) [Example 119, Ethyl 6-bromo-1-cyclopropyl-5-hydroxy-4-[(1-imidazolyl)methyl]-2-[(3,4-difluorophenyl)sulfinylmethyl]-1H-indole-3-carboxylate] | 21.11 µg/mL (≈ 36.5 µM) | 3.6 µg/mL (≈ 6.22 µM) | 5.8 |  |  |  |  |  | 
13 | CCOC(=O)c1c(C[S+]([O-])c2ccccc2F)n(C)c2cc(Br)c(O)c(Cn3ccnc3)c12 (centres unmarked) [Example 125, Ethyl 6-bromo-5-hydroxy-4-[(1-imidazolyl)methyl]-1-methyl-2-[(2-fluorophenyl)sulfinylmethyl]-1H-indole-3-carboxylate] | 48.1 µg/mL (≈ 90 µM) | 8.76 µg/mL (≈ 16.4 µM) | 5.49 |  |  |  |  |  | 
14 | CCOC(=O)c1c(C[S+]([O-])Cc2ccco2)n(C2CC2)c2cc(Br)c(O)c(Cn3ccnc3)c12 (centres unmarked) [Example 130, Ethyl 6-bromo-1-cyclopropyl-5-hydroxy-4-[(1-imidazolyl)methyl]-2-[(2-furylmethyl)sulfinylmethyl]-1H-indole-3-carboxylate] | 24.69 µg/mL (≈ 45.2 µM) | 5.94 µg/mL (≈ 10.9 µM) | 4.16 |  |  |  |  |  | 
15 | CCOC(=O)c1c(C[S+]([O-])c2ccccc2)n(C)c2cc(Br)c(O)c(Cn3ccnc3C)c12 (centres unmarked) [Example 131, Ethyl 6-bromo-5-hydroxy-1-methyl-4-[(2-methyl-1-imidazolyl)methyl]-2-(phenylsulfinylmethyl)-1H-indole-3-carboxylate] |  |  |  | 294 µM | 4.6 | 14.6 | 7.1 | 7.7 | 55.1
16 | CCOC(=O)c1c(C[S+]([O-])c2ccc(F)c(F)c2)n(C)c2cc(Br)c(O)c(Cn3ccnc3C)c12.Cl (centres unmarked) [Example 133, Ethyl 6-bromo-5-hydroxy-1-methyl-4-[(2-methyl-1-imidazolyl)methyl]-2-[(3,4-difluorophenyl)sulfinylmethyl]-1H-indole-3-carboxylate hydrochloride] | 40.0 µg/mL | 6.37 µg/mL | 6.28 |  |  |  |  |  | 
17 | CCOC(=O)c1c(C[S+]([O-])c2cccc(C)c2)n(C)c2cc(Br)c(O)c(Cn3ccnc3C)c12 (centres unmarked) [Example 134, Ethyl 6-bromo-5-hydroxy-1-methyl-4-[(2-methyl-1-imidazolyl)methyl]-2-[(3-methylphenyl)sulfinylmethyl]-1H-indole-3-carboxylate] | 53.42 µg/mL (≈ 98.1 µM) | 3.8 µg/mL (≈ 6.98 µM) | 19.1 |  |  |  |  |  | 
18 | CCOC(=O)c1c(C[S+]([O-])c2ccccc2OC)n(C)c2cc(Br)c(O)c(Cn3ccnc3C)c12.Cl (centres unmarked) [Example 135, Ethyl 6-bromo-5-hydroxy-1-methyl-4-[(2-methyl-1-imidazolyl)methyl]-2-[(2-methoxyphenyl)sulfinylmethyl]-1H-indole-3-carboxylate hydrochloride] | 53.42 µg/mL | 2.4 µg/mL | 22.3 |  |  |  |  |  | 
19 | CCOC(=O)c1c(C[S+]([O-])c2c(Cl)cccc2Cl)n(C2CC2)c2cc(Br)c(O)c(Cn3ccnc3C)c12 (centres unmarked) [Example 137, Ethyl 6-bromo-1-cyclopropyl-5-hydroxy-4-[(2-methyl-1-imidazolyl)methyl]-2-[(2,6-dichlorophenyl)sulfinylmethyl]-1H-indole-3-carboxylate] | 160.2 µg/mL (≈ 256 µM) | 35.5 µg/mL (≈ 56.7 µM) | 4.51 |  |  |  |  |  | 
20 | CCOC(=O)c1c(C[S+]([O-])c2ccc(C)cc2)n(C)c2ccc(O)c(Cn3ccnc3C)c12 (centres unmarked) [Example 142, Ethyl 5-hydroxy-1-methyl-4-[(2-methyl-1-imidazolyl)methyl]-2-[(4-methylphenyl)sulfinylmethyl]-1H-indole-3-carboxylate] | 106.83 µg/mL (≈ 229 µM) | 23.8 µg/mL (≈ 51.1 µM) | 4.49 |  |  |  |  |  | 
21 | CCOC(=O)c1c(C[S+]([O-])c2ccccc2)n(C)c2cc(Br)c(O)c(Cn3cncn3)c12 (centres unmarked) [Example 146, Ethyl 6-bromo-5-hydroxy-1-methyl-4-[(1H-1,2,4-triazol-1-yl)methyl]-2-(phenylsulfinylmethyl)-1H-indole-3-carboxylate] | 40.0 µg/mL (≈ 77.3 µM) | 13.1 µg/mL (≈ 25.3 µM) | 3.06 |  |  |  |  |  | 
22 | CCOC(=O)c1c(C[S+]([O-])c2ccccc2OC)n(C)c2cc(Br)c(O)c(CNC(=N)N)c12.Cl (centres unmarked) [Example 151, Ethyl 6-bromo-4-(guanidinylmethyl)-5-hydroxy-1-methyl-2-[(2-methoxyphenyl)-sulfinylmethyl]-1H-indole-3-carboxylate hydrochloride] | 64.15 µg/mL | 1.8 µg/mL | 35.6 |  |  |  |  |  | 
23 | CCOC(=O)c1c(CS(=O)(=O)c2ccc(F)c(F)c2)n(C2CC2)c2cc(Br)c(O)c(Cn3ccnc3)c12 [Example 160, Ethyl 6-bromo-1-cyclopropyl-5-hydroxy-4-[(1-imidazolyl)methyl]-2-[(3,4-difluorophenyl)sulfonylmethyl]-1H-indole-3-carboxylate] |  |  |  | 21.3 µM | 6.1 | 11.7 | 29.1 | 71.8 | 97.8
